Data as given in patent US20250360101A1, “OSTEOCLAST DIFFERENTIATION INHIBITOR CONTAINING UROLITHIN” (DAICEL CORPORATION, priority 2020, published 2025).

Assays:
[1] = tested on: mouse bone marrow-derived hematopoietic stem cells; experiment: Osteoclast differentiation inhibition test (M-CSF/RANKL induction, TRAP staining) from hematopoietic stem cells; format: cell-based; conditions: for number of osteoclasts (relative value): 8 days culture, ratio of TRAP-stained area to sample-free group (Comparative Example = 100%); for Osteoclast differentiation (significance vs Comparative Example): Tukey's test, P not more than 0.1%
Experimental: (§1) In the present Examples, statistical analysis was carried out using commercially available software (StatMate3, ATMS). Except for Example 3 and Comparative Example 3, Tukey's test was used for comparison in terms of the action and effect. In all tests, a significant difference was assumed at a P value of not more than 0.1%. In Example 3 and Comparative Example 3, Dunnett's test was used for comparison in terms of the action and effect. A significant difference was assumed at a P-value of not more than 1%.
Mouse femurs and tibias were removed, and a portion of about 2 mm was removed from each bone end by cutting. The long bones were placed in a 0.2-mL microtube, and centrifuged at 2000×g, followed by collecting bone marrow fluid. After suspending the bone marrow fluid in 4 ml of α-MEM medium (#. 11900-016, Gibco) supplemented with 10% FBS (JBS-011115), the resulting suspension was plated on a 6-cm dish. After incubating the plate at 37° C. under 5% CO2 for 24 hours, the medium was collected. The floating cells in the medium were isolated as hematopoietic stem cells.
The isolated mouse bone marrow-derived hematopoietic stem cells were plated on a 96-well plate at 4.0×10^4 cells/well. At the same time as the plating, 30 ng/ML M-CSF (macrophage-colony stimulating factor, R&D Systems) and 50 ng/mL RANKL (receptor activator of nuclear factor κ-B ligand, PeproTech Inc.) as inducers of differentiation into osteoclasts were added to all wells. Together with the differentiation inducers, urolithin A (1, 10, or 25 μM) was added. Culture was carried out by leaving the plate to stand in an incubator at 37° C. under 5% CO2 for 8 days. The medium in each well was removed, and the cells were fixed by being left to stand in […] Mildform for 10 minutes, followed by three times of washing with pure water. Thereafter, 50 μL of TRAP staining solution (SIGMA) was added to each well, and the plate was incubated in a shaded state for 1 hour at 37° C. The TRAP staining solution in each well was discarded, and the well was washed with pure water, followed by adding 50 μL of Mayer's hematoxylin solution thereto. The plated was left to stand for 2 minutes to perform nuclear staining. The plate was washed 10 times with pure water, and then dried for one or more days. The total number of multinucleated osteoclasts having three or more nuclei present on each well was counted. The stained image was scanned using a scanner (EPSON, GT-X970, 800 pixels/inch), and the stained area was measured using image analysis software Image J.
The same operation as in Example 1 was carried out except that urolithin A was not added.
The ratio of the stained area in each sample-addition group (Example 1) to the stained area in the sample-free group (Comparative Example 1) was calculated to determine the number of osteoclasts (relative value). […] The conditions marked with “*” in Table 2 and FIG. 1 are the conditions under which the significant differences were found compared to Comparative Example 1.
The same operation as in Example 1 was carried out except that urolithin B was used instead of urolithin A, and that urolithin B was added at 25 or 50 μM.
The same operation as in Example 1 was carried out except that urolithin B was not added.
The ratio of the stained area in each sample-addition group (Example 2) to the stained area in the sample-free group (Comparative Example 2) was calculated to determine the number of osteoclasts (relative value). […] The condition marked with “*” in Table 3 and FIG. 2 is the condition under which the significant difference was found compared to Comparative Example 2.

[2] = tested on: macrophages prepared by differentiation from the isolated mouse bone marrow-derived hematopoietic stem cells; experiment: Osteoclast differentiation inhibition test (M-CSF/RANKL induction, TRAP staining) from macrophages; format: cell-based; conditions: 10 μM; 3 days culture; ratio of TRAP-stained area to sample-free group (Comparative Example 3 = 100%)
Experimental: as §1
Mouse femurs and tibias were removed, and a portion of about 2 mm was removed from each bone end by cutting. The long bones were placed in a 0.2-mL microtube, and centrifuged at 2000×g, followed by collecting bone marrow fluid. […]
The macrophages prepared by differentiation from the isolated mouse bone marrow-derived hematopoietic stem cells were plated on a 96-well plate at 4.0×10^4 cells/well. […] The total number of multinucleated osteoclasts having three or more nuclei present on each well was counted. The stained image was scanned using a scanner (EPSON, GT-X970, 800 pixels/inch), and the stained area was measured using image analysis software Image J. […]
The ratio of the stained area in each sample-addition group (Example 3) to the stained area in the sample-free group (Comparative Example 3) was calculated to determine the number of osteoclasts (relative value). […]

Row | Compound | number of osteoclasts (relative value) ([1]; 1 μM) | number of osteoclasts (relative value) ([1]; 10 μM) | Osteoclast differentiation (significance vs Comparative Example) ([1]; 10 μM) | number of osteoclasts (relative value) ([1]; 25 μM) | Osteoclast differentiation (significance vs Comparative Example) ([1]; 25 μM) | number of osteoclasts (relative value) [2] | number of osteoclasts (relative value) ([1]; 50 μM)
1 | O=c1oc2cc(O)ccc2c2ccc(O)cc12 [Urolithin A] | 88% ± 9% | 49% ± 6% (*) | significantly inhibited | 26% ± 4% (*) | significantly inhibited | 50% ± 5% (*) | 
2 | O=c1oc2cc(O)ccc2c2ccccc12 [Urolithin B] |  |  |  | 87% ± 13% |  |  | 40% ± 5% (*)
